This is an account of results in patent publication US7662767B2, “Polynucleotide intercalator interceptors and inhibitors” (Materials Evolution and Development USA, Inc., priority 2000, dated 2010).

In this assay the test system is Drosophila salivary gland polytene chromosome. The experiment in a line: Removal of DNA binding stains from polytene chromosome bands by xanthine wash. As to conditions: for Degree of Stain Removal, Exposure to AM (100 mM) / Degree of Stain Removal, Exposure to CAF (100 mM): 15 minute wash, static, hydrochloride. The arrangement: species or system Drosophila melagaster. On the procedure: In another implementation, giant polytene chromosomes were prepared by the squash technique from the salivary gland of Drosophila melagaster larva The salivary gland was placed on a microscope slide, squashed with a glass cover slide, fixed with acidic acid, rinsed with distilled water, and allowed to dry (kindly provided by Linda Chadwell, UTHSCSA-IBT). Three known DNA intercalators, ethidium bromide (98% purity, Aldrich Chemical Company, Milwaukee, Wis.), doxorubicin (98%, Sigma Chemnical Company, St. Louis, Mo.), and acridine orange plus the minor groove binding DNA stain Hoechst 33258 (98%, ACROS Chemical Company, NJ) were prepared in distilled water at a concentration of 1 mM (for chemical structures see FIG. 4-1, where acridine orange (3,6-bis [dimethylamino] acridine) is shown in Panel A, ethidium bromide is shown in Panel B, doxorubicin is shown in Panel C, Hoechst 33258 is shown in Panel D). The slides with prepared chromosomes were immersed in these stains for a period of 30 minutes, rinsed with distilled water, and dried at room temperature. Fluorescence microscopic analysis was conducted at λex 360 nm and photomicrographs were conducted on a Zeiss Model 63 Microscope with a xenon source fluorescent emitter. Photomicrographs were taken using Kodak Gold 35 mm ASA 1600 speed film noting the position of one individual chromosome on the slide. The stained slides were then subjected to 100 mM caffeine or 100 mM aminophylline under static conditions for a period of 15 minutes, rinsed with distilled water, then allowed to dry at room temperature. The presence of the same individual unstained chromosome in the field was confirmed by phase contrast microscopy. The chromosome was viewed again under fluorescence microscopy at […], and color recorded. Slides were re-stained by immersion in the 1 mM stain for a period of 30 minutes, rinsed with distilled water, and dried at room temperature, and the same individual chromosome was examined by fluorescence microscopy and the fluorescence color recorded.
FIG. 4-3 depicts three photomicrographs of the same Drosophila polytene chromosome: after staining with the DNA minor groove binder Hoechst 33258 dye (Panel A), after rinsing with CAF for 15 minutes (Panel B), and a phase contrast verification of the presence of the chromosome after the CAF rinse (Panel C). Table 4-4 summarizes the results from the experiments using caffeine (CAF) and aminophylline (AM) to remove the following DNA intercalators: doxorubicin, ethidium bromide, acridine orange, and the DNA minor groove binder Hoechst 33258 from their binding sites within polytene chromosomes. […] With all DNA intercalators, the staining of chromosome bands was intense before the xanthine rinses and was again intense following re-staining.

Take `CN(C)c1ccc2cc3ccc(N(C)C)cc3nc2c1.Cl` [AO, 3,6-bis[dimethylamino]acridine hydrochloride]: the “Degree of Stain Removal, Exposure to AM (100 mM)” value is recorded as “completely removed” and the “Degree of Stain Removal, Exposure to CAF (100 mM)” value is “did not completely remove the stain”. Under “1 mM stain, 30 minutes”, the “Re-staining following Xanthine Exposure” value is on record as “Complete” and the “Staining before Xanthine Exposure” value is recorded as “Banding”. For the same compound, under “listed as Acridine Orange”, the “Degree of Stain Removal, Exposure to AM (100 mM)” value is listed as “Complete” and the “Degree of Stain Removal, Exposure to CAF (100 mM)” value is on record as “Almost”.
